Reference: PMC4736399 (Oxidative Medicine and Cellular Longevity, 2016)
Values joined by “and” are separate entries in the source; they are usually repeats but may differ in a detail not shown here. Identical values can stand only once. Counter-ions that a name gives are not always drawn.

Experiments:
SSAO = molecular target: T1, SSAO (Homo sapiens, UniProt Q16853); experiment: Amplex Red fluorometric detection of benzylamine-induced hydrogen peroxide release in human adipose tissue homogenates; assay type: biochemical; conditions: for effect on benzylamine-induced H2O2 release: tested agent at 1 mM, 1 mM benzylamine, hAT homogenates, Amplex Red
T1 construct: benzylamine oxidation by hAT preparations, naturally rich in SSAO/VAP-1; from tissue; host or cells: human subcutaneous abdominal adipose tissue (hAT), crude homogenate
T1 sequence (Q16853 1-763): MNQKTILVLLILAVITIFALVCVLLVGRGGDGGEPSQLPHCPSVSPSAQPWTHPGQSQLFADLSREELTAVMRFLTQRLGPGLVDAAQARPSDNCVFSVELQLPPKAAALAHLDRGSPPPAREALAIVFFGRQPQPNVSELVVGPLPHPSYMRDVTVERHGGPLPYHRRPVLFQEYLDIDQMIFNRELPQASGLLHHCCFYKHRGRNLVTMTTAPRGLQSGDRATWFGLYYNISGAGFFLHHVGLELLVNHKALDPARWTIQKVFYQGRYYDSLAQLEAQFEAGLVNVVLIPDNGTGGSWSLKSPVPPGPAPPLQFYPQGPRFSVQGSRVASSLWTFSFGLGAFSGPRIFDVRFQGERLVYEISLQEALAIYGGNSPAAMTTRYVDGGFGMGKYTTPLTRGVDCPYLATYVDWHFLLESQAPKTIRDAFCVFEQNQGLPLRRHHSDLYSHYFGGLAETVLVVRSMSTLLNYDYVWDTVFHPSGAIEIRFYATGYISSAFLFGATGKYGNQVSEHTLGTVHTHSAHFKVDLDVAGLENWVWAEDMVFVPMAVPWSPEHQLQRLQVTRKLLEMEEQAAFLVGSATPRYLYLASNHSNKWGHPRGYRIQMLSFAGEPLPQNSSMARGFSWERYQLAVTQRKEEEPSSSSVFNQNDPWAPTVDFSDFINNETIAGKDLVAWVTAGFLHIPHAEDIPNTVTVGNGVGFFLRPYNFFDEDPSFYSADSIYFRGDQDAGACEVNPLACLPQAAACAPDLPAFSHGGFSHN
Experimental: (§1) Oxidase activity was measured using the fluorescent probe Amplex Red (10-acetyl-3,7-dihydrophenoxazine) designed for the detection of hydrogen peroxide in biological milieu. Assays were performed accordingly to our previous descriptions, which corresponded to slight modifications from the adaptation of such fluorometric method for MAO activity determination. Briefly, hydrogen peroxide release was quantified owing to a chromogenic mixture containing 40 μM Amplex Red and 4 U/mL horseradish peroxidase and to the parallel use of hydrogen peroxide standard solutions ranging from 0.05 to 5 μM (final concentrations). Thawed hAT samples were homogenized in 200 mM phosphate buffer (pH 7.4) during 30 sec with a homogenizer Tissue Master-125 (Omni International, Kennesaw, GA, USA) just prior to the determination of their amine oxidase activity, as previously reported, except that no antiprotease cocktail was added. Homogenates were distributed in 96-well dark microplates (at 50 ± 5 μg protein/well) and incubated at 37°C in the dark for at least 30 min in 200 μL final volume after a 30 min preincubation without (control) or with 1 mM pargyline or semicarbazide to inhibit MAO or SSAO activity, respectively, or even with both reference inhibitors to abolish all AO activity. All phenolic compounds tested for their inhibitory properties were also added during this preincubation step. Tyramine or benzylamine was added to the medium in order to obtain 1 mM concentration and to serve as substrates for AO activities, as already stated.
(§2) Spontaneous hydrogen peroxide formation by homogenates of thawed material was also quantified without any addition of exogenous amine or inhibitor and defined as basal release. The influence of chemical compounds or biochemical agents on the fluorescence readouts generated by the hydrogen peroxide standard curve was also performed without any presence of hAT in a set of experiments called “without biological material.” In all cases, fluorescence data (ex/em: 540/590 nm) were collected on a Fluoroskan Ascent plate reader (ThermoLabsystems, Finland).
Fluorescence readouts after 30 min incubation were substracted from corresponding values at t0 and net increase was set at 100% for 1 mM benzylamine alone. (a) Pargyline (MAO, dark squares) or semicarbazide (SSAO inhibitor, open squares) was present at indicated final concentrations, while their combination was tested at 1 mM (P + S, black triangle). Mean ± SEM of at least 6 homogenates. (b) The phenolic compounds were tested in parallel at the indicated final concentrations. Means ± SEM of 8 to 12 homogenates.

MAO [1] = experiment: Radiochemical assay of [14C]-tyramine oxidation by hAT homogenates; assay type: biochemical, human; conditions: 1 mM [14C]-tyramine, 30 min
Experimental: (§3) Samples of adipose tissue were homogenized as described above. 50 μL of crude homogenates were then incubated for 30 min at 37°C in 200 μL of 200 mM phosphate buffer in the presence of radiolabelled amine after 30 min preincubation without or with inhibitor(s). MAO-dependent oxidation was defined as sensitive to inhibition by 1 mM pargyline, whereas SSAO-dependent oxidation was abolished by 1 mM semicarbazide. Assays were started by addition of the labelled substrate and stopped by adding 50 μL of 4 M HCl. Reaction products of amine oxidation were extracted by 1 mL of organic solvent (toluene/ethyl acetate, 1/1 v/v), according to Tipton's method. Then, 0.7 mL aliquots of the organic phase were counted for radioactivity. Maximal velocity and optimal conditions for determination of amine oxidase activities have been already detailed for human adipocytes, cultured preadipose cells, or hAT homogenates. Thus, inhibition studies were performed only under conditions reaching maximal oxidation velocity, that is, corresponding to the use of tyramine or benzylamine isotopic dilutions giving 1 mM final concentration and reaching approximately 640000 dpm/50 μL for [^14C]-tyramine (provided either by PerkinElmer, Evry, France, or by Sigma-Aldrich) or 200000 dpm/50 μL for [^14C]-benzylamine (NEC 835050UC purchased from PerkinElmer). The radioactivity extracted in the organic phase at time 0 (t0) represented less than 0.5% of the total radioactivity/tube of each labelled amine and was subtracted to all counts with tyramine and benzylamine oxidation without inhibitor averaging 14160 ± 5620 dpm (n = 16) and 15800 ± 1770 dpm (n = 12), respectively. These absolute values, which varied substantially from one individual to another, were set as 100% reference in each subject for the calculation of percentages of inhibition.
Figure 5 Influence of phenolic compounds and MAO inhibitors or SSAO inhibitors on tyramine oxidation by hAT. The production of radiolabelled aldehydes resulting from the 30 min incubation of fat tissue homogenates with 1 mM isotopic dilution of [^14C]-tyramine was set at 100% in the absence of added inhibitor, while the background radioactivity detected at t0 was set at 0%. (a) Inhibition by pargyline only of MAO-dependent tyramine oxidation. (b) Influence of phenolic compounds on tyramine oxidation. Each point is the mean ± SEM of 8 (inhibitors) to 12 (phenolic compounds) homogenates.

human adipocytes = experiment: [3H]-2-deoxy-glucose uptake in freshly isolated adipocytes; assay type: cell-based; conditions: phenolic compound 100 μM (P + S 1 mM each), benzylamine stimulation, 45 min incubation
Experimental: To determine glucose transport activity, hAT was grossly minced and digested at 37°C under shaking in 20 mL of Krebs-Ringer medium containing 0.015 mg/mL liberase (type TM, Roche Diagnostics), 15 mM sodium bicarbonate, 10 mM HEPES, and 3.5% bovine serum albumin. Buoyant adipocytes were separated by filtration through nylon screen and carefully washed in the same medium at pH 7.4 without liberase to obtain adipocyte suspensions as already described. Freshly isolated adipocytes were incubated for 45 min with the tested agents just before [^3H]-2-deoxy-glucose uptake assays (PerkinElmer) performed in 10 min at 37°C in plasticware as already described.
Figure 9 Effects of phenolic compounds, benzylamine, and insulin on glucose transport in human adipocytes. Freshly isolated adipocytes were incubated for 45 min without (basal) or with insulin 100 nM (ins.) or with benzylamine and phenolic compounds at the indicated doses. Then 2-DG uptake assays were performed on 10 min as detailed in Section 2. […] Basal, insulin-stimulated, or benzylamine-stimulated 2-DG uptake was tested without (no addition, open columns) or with pargyline + semicarbazide at 1 mM each (P + S, dark columns). Mean ± SEM of 39 cases. Different from basal alone at ^### P < 0.001. Different from benzylamine alone at ^∗∗∗ P < 0.001. (b) Insulin was used as the agent of reference for maximal transport stimulation, set at 100%. Benzylamine was tested at 1 mM alone (control, open column) or in the presence of 100 μM of the indicated phenolic compounds. Mean ± SEM of 7 observations. Different from benzylamine alone at ^∗ P < 0.05 and ^∗∗ P < 0.01.

SSAO/VAP-1 = molecular target: T2, SSAO/VAP-1 (Homo sapiens, UniProt Q16853); experiment: Radiochemical assay of [14C]-benzylamine oxidation by hAT homogenates; assay type: biochemical; conditions: 1 mM [14C]-benzylamine, 30 min, up to 1 mM
T2 construct: benzylamine oxidation by hAT preparations, naturally rich in SSAO/VAP-1; from tissue; host or cells: human subcutaneous abdominal adipose tissue (hAT), crude homogenate
T2 sequence (Q16853 1-763): T1 sequence (Q16853 1-763)
Experimental: as §3
Figure 6 Influence of phenolic compounds and MAO inhibitors or SSAO inhibitors on benzylamine oxidation by hAT. (a) Thirty-minute oxidation of 1 mM [^14C]-benzylamine by homogenates generated amounts of radiolabelled benzaldehyde that were separated by extraction as described in Materials and Methods and set at 100% signal (control), while 0% corresponded to the extractible radioactivity at t0. The reference MAO inhibitors (pargyline) or SSAO (semicarbazide) inhibitors were present, separately or in combination at 1 mM, […] before the addition of the radiolabelled substrate. […] Each point is the mean ± SEM of 8 homogenates.

[2] = Amplex Red-based fluorescence of 5 μM hydrogen peroxide without biological material; conditions: read-out: EC50 for lowering the fluorescent signal elicited by 5 μM hydrogen peroxide; without any human biological material, Amplex Red chromogenic mixture
Experimental: as §2
Figure 4 Influence of amine oxidase substrates or inhibitors and phenolic compounds on fluorescent-based detection of hydrogen peroxide. The chromogenic mixture used for Amplex Red-based fluorometric detection of hydrogen peroxide was incubated with 5 μM H2O2 alone (control set at 100%) or in the presence of the indicated final concentrations of tested chemicals. […] Means ± SEM of 7 measurements without any human material.

MAO [3] = experiment: Amplex Red fluorometric detection of tyramine-induced hydrogen peroxide release in human adipose tissue homogenates; assay type: biochemical; conditions: for effect on tyramine-induced H2O2 release: 1 mM tyramine, hAT homogenates, Amplex Red, inhibitors 1 μM to 1 mM
Experimental: as §1, §2

MAO-A = system: MAO-A; parameters: method as in PMID 19013512; conditions: at 10-100 μM, peroxidase-based detection of hydrogen peroxide; cited from earlier work

EC50 [2] [µM]	Structure (SMILES)	effect on [14C]-tyramine oxidation (MAO [1])	effect on benzylamine-stimulated deoxyglucose uptake (human adipocytes)	effect on SSAO-mediated [14C]-benzylamine oxidation (SSAO/VAP-1)	effect on benzylamine-induced H2O2 release (SSAO)	further results
–	NCc1ccccc1 [benzylamine, benzylamine hydrochloride]	–	–	–	–	effect on hydrogen peroxide production by hAT preparations (SSAO; 1 mM benzylamine as substrate, 30 min, versus basal): significantly increased the amount of detected hydrogen peroxide
3.5	O=C(O)/C=C/c1ccc(O)c(O)c1 [caffeic acid]	did not abolish enzyme activity	No clear-cut inhibition	without preventing benzylamine degradation	abolished benzylamine-induced signal	–
–	C#CCN(C)Cc1ccccc1 [pargyline]	inhibited	–	could not prevent this type of amine metabolism	resistant	proportion of tyramine-induced H2O2 production left unaltered (MAO [3]; 1 mM pargyline alone or with 1 mM semicarbazide, 1 mM tyramine = 100%): approximately 30%; effect on tyramine-induced H2O2 release (MAO [3]): inhibited dose-dependently
5.2	COc1cc(/C=C/c2ccc(O)cc2)cc(OC)c1 [pterostilbene]	did not abolish enzyme activity	counteracted the effect of 1 mM benzylamine	without preventing benzylamine degradation	impaired partially the benzylamine-induced signal	–
2	O=c1c(O)c(-c2ccc(O)c(O)c2)oc2cc(O)cc(O)c12 [quercetin]	–	counteracted the effect of 1 mM benzylamine	without preventing benzylamine degradation	impaired partially the benzylamine-induced signal	MAO-A inhibition, in words (MAO-A): inhibit MAO-A in a complete manner
–	Oc1ccc(/C=C/c2cc(O)cc(O)c2)cc1 [resveratrol, trans-resveratrol]	–	counteracted the effect of 1 mM benzylamine	without preventing benzylamine degradation	abolished benzylamine-induced signal	–
–	NNC(N)=O [semicarbazide]	virtually unable to abolish this activity	–	eradicated the generation of labelled benzaldehyde	inhibited	effect on tyramine-induced H2O2 release (MAO [3]): totally inefficient; proportion of benzylamine-induced H2O2 signal left unaltered (SSAO; 1 mM semicarbazide alone or with 1 mM pargyline, 1 mM benzylamine = 100%): 20% and 15–20%
–	NCCc1ccc(O)cc1 [tyramine, tyramine hydrochloride]	–	–	–	–	effect on hydrogen peroxide production by hAT preparations (MAO [3]; 1 mM tyramine as substrate, 30 min, versus basal): to a lesser extent, significantly increased the amount of detected hydrogen peroxide
